Earlier results, collected in patent US20200022949A1, “COMPOSITION AND METHOD FOR THE ALLEVIATION OF EFFECTS OF ALCOHOL CONSUMPTION” (Detoxicated Inc., priority 2018, published 2020).

Tested on: non-alcoholic fatty liver disease
Conditions: patients with non-alcoholic fatty liver disease

Q: With `O=C1c2c(O)cc(O)cc2O[C@H](c2cc(O)c(O)c(O)c2)[C@H]1O` [DHM, dihydromyricetin] as the molecule, how does the “liver health (levels of liver enzymes and inflammatory cytokines)” value read?
A: The value was “improve liver health”.
